# Active and inactive are the calls of the source. The rule behind the calls is not given here.
# Key:
# Acinetobacter baumannii [1] = test: Antimicrobial activity against Acinetobacter baumannii AB1901 assessed as increase in absorbance incubated for 20 to 22 hrs; assay type: functional; details: time 20-22 hrs
# Staphylococcus aureus [2] = test: Antimicrobial activity against Staphylococcus aureus 11011 assessed as increase in absorbance incubated for 20 to 22 hrs; assay type: functional; details: time 20-22 hrs
# Pseudomonas aeruginosa [3] = test: Antimicrobial activity against Pseudomonas aeruginosa 25349 assessed as increase in absorbance incubated for 20 to 22 hrs; assay type: functional; details: time 20-22 hrs
# Acinetobacter baumannii [4] = test: Antimicrobial activity against Acinetobacter baumannii AB1902 assessed as increase in absorbance incubated for 20 to 22 hrs; assay type: functional; details: time 20-22 hrs
# Mus musculus [5] = test: Anti-inflammatory activity against Escherichia coli ATCC 25922-induced peritonitis ICR mouse model assessed as decrease in TNF-alpha level in serum spleen at 5 mg/kg, ip measured after 12 hrs; assay type: functional, organism-based
# Mus musculus [6] = test: Anti-inflammatory activity against Escherichia coli ATCC 25922-induced peritonitis ICR mouse model assessed as decrease in IL-1 beta level in serum spleen at 5 mg/kg, ip measured after 12 hrs; assay type: functional, organism-based
# Mus musculus [7] = test: Anti-inflammatory activity against Escherichia coli ATCC 25922-induced peritonitis ICR mouse model assessed as decrease in IL-6 level in serum spleen at 5 mg/kg, ip measured after 12 hrs; assay type: functional, organism-based
# Lipopolysaccharide (LPS) = test: Binding affinity to Escherichia coli O111:B4 Lipopolysaccharide by fluorescent probe BODIPYTR-cadaverine (BC) assay; details: dose 1-16 µM
# Escherichia coli [8] = test: Reduction in intracellular ATP level in Escherichia coli ATCC 25922 at 2 uM measured after 1 hr incubation by Enhanced ATP assay kit; assay type: functional; set-up: scale not given: the % may be the effect or the level left
# Escherichia coli [9] = test: Antimicrobial activity against Escherichia coli K88 assessed as increase in absorbance incubated for 20 to 22 hrs; assay type: functional; details: time 20-22 hrs
# Escherichia coli [10] = test: Antimicrobial activity against Escherichia coli ATCC 25922 assessed as increase in absorbance incubated for 20 to 22 hrs in presence of Fe3+ physiological salt; assay type: functional, organism-based; details: time 20-22 hrs
# Escherichia coli [11] = test: Antimicrobial activity against Escherichia coli K99 assessed as increase in absorbance incubated for 20 to 22 hrs; assay type: functional; details: time 20-22 hrs
# Escherichia coli [12] = test: Antimicrobial activity against Escherichia coli ATCC 25922 assessed as increase in absorbance incubated for 4 hrs in presence of 12.5% serum; assay type: functional, organism-based
# Pseudomonas aeruginosa [13] = test: Antimicrobial activity against Pseudomonas aeruginosa 27853 assessed as increase in absorbance incubated for 20 to 22 hrs; assay type: functional; details: time 20-22 hrs
# Escherichia coli [14] = test: Antimicrobial activity against Escherichia coli ATCC 25922 assessed as increase in absorbance at 8 mg/ml incubated for 8 hrs in presence of chymotrypsin; assay type: functional, organism-based
# Staphylococcus aureus [15] = test: Antimicrobial activity against Staphylococcus aureus 29213 assessed as increase in absorbance incubated for 20 to 22 hrs; assay type: functional; details: time 20-22 hrs
# Escherichia coli [16] = test: Induction of ROS accumulation in Escherichia coli ATCC 25922 at 4 uM incubated for 30 mins by DCFH-DA assay; assay type: functional, organism-based
# Escherichia coli [17] = test: Antimicrobial activity against Escherichia coli ATCC 25922 assessed as increase in absorbance incubated for 20 to 22 hrs; assay type: functional; details: time 20-22 hrs
# Escherichia coli [18] = test: Antimicrobial activity against Escherichia coli ATCC 25922 assessed as increase in absorbance at MIC concentration in presence of […] ug/ml Lipopolysaccharide incubated for 8 hrs; assay type: functional, organism-based; details: dose 64.0 µg/ml
# Escherichia coli [19] = test: Resistance fold, ratio of MIC for Escherichia coli ATCC 25922 measured after 30 day passage period to MIC for Escherichia coli ATCC 25922; assay type: functional
# RAW264.7 = test: Cytotoxicity against mouse RAW264.7 cells assessed as cell death measured after 18 to 24 hrs by MTT assay; assay type: functional; details: time 18-24 hrs
# Escherichia coli [20] = test: Inhibition of respiratory chain dehydrogenase (RCD) activity in Escherichia coli ATCC 25922 at 4 uM incubated for 90 mins by TTC assay
# [21] = test system: Staphylococcus epidermidis; test: Antimicrobial activity against Staphylococcus epidermidis 12228 assessed as increase in absorbance incubated for 20 to 22 hrs; assay type: functional; details: time 20-22 hrs
# Escherichia coli [22] = test: Induction of membrane damage in Escherichia coli ATCC 25922 assessed as damaged membrane surface by analysing leakage (hollow interiors) at 8 uM measured after 1 hr incubation by TEM analysis; assay type: functional, organism-based
# Cell membrane [23] = test: Induction of depolarization of cytoplasmic membrane (CM) in Escherichia coli ATCC 25922 assessed as fluorescence changes at 1/2 to 3 times of MIC by fluorescent probe DiSC3-5 assay; assay type: subcellular; details: time 1000-3000 sec
# Cell membrane [24] = test: Induction of cytoplasmic membrane (CM) permeabilization in Escherichia coli ATCC 25922 assessed as utilization of ONPG at 1/2 MIC; assay type: subcellular
# Escherichia coli [25] = test: Antimicrobial activity against Escherichia coli ATCC 25922 assessed as increase in absorbance incubated for 20 to 22 hrs in presence of K+ physiological salt; assay type: functional, organism-based; details: time 20-22 hrs
# Cell membrane [26] = test: Induction of Outer membrane permeability in Escherichia coli ATCC 25922 incubated for 30 mins by N-phenyl-1-naphthylamine (NPN) uptake assay; assay type: subcellular; details: dose 1-16 µM
# Escherichia coli [27] = test: Antimicrobial activity against Escherichia coli ATCC 25922 assessed as increase in absorbance at MIC concentration in presence of < 8 ug/ml Lipopolysaccharide incubated for 8 hrs; assay type: functional, organism-based; details: dose < 8.0 µg/ml
# Escherichia coli [28] = test: Antimicrobial activity against Escherichia coli ATCC 25922 assessed as increase in absorbance incubated for 4 hrs in presence of 25% serum; assay type: functional, organism-based
# Staphylococcus aureus [29] = test: Antimicrobial activity against Staphylococcus aureus 25923 assessed as increase in absorbance incubated for 20 to 22 hrs; assay type: functional; details: time 20-22 hrs
# Escherichia coli [30] = test: Antimicrobial activity against Escherichia coli ATCC 25922 assessed as increase in absorbance incubated for 20 to 22 hrs in presence of Mg2+ physiological salt; assay type: functional, organism-based; details: time 20-22 hrs
# Staphylococcus aureus [31] = test: Antimicrobial activity against methicillin-resistant Staphylococcus aureus 43300 assessed as increase in absorbance incubated for 20 to 22 hrs; assay type: functional; details: time 20-22 hrs
# Salmonella typhimurium [32] = test: Antimicrobial activity against Salmonella typhimurium 14028 assessed as increase in absorbance incubated for 20 to 22 hrs; assay type: functional, Salmonella enterica subsp. enterica serovar Typhimurium; details: Salmonella enterica, time 20-22 hrs
# Escherichia coli [33] = test: Antimicrobial activity against Escherichia coli ATCC 25922 assessed as increase in absorbance at 8 mg/ml incubated for 8 hrs in presence of pepsin; assay type: functional, organism-based
# Escherichia coli [34] = test: Antimicrobial activity against Escherichia coli ATCC 25922 assessed as increase in absorbance incubated for 4 hrs in presence of 50% serum; assay type: functional, organism-based
# Escherichia coli [35] = test: Antibiofilm activity against Escherichia coli ATCC 25922 biofilm assessed as inhibition of biofilm formation at 2 uM; assay type: functional, organism-based
# [36] = Hemolytic activity in healthy human RBC assessed as hemolysis incubated for 1 hr by microplate reader; assay type: toxicity, cell-based; details: erythrocyte
# Escherichia coli [37] = test: Antimicrobial activity against Escherichia coli ATCC 25922 assessed as increase in absorbance at 8 mg/ml incubated for 8 hrs in presence of trypsin; assay type: functional, organism-based
# Escherichia coli [38] = test: Induction of membrane damage in Escherichia coli ATCC 25922 assessed as damaged membrane surface (irregular vesicles protrusions) at 8 uM measured after 1 hr incubation by SEM analysis; assay type: functional, organism-based
# Salmonella typhimurium [39] = test: Antimicrobial activity against Salmonella typhimurium 7731 assessed as increase in absorbance incubated for 20 to 22 hrs; assay type: functional, Salmonella enterica subsp. enterica serovar Typhimurium; details: Salmonella enterica, time 20-22 hrs
# Cell membrane [40] = test: Induction of depolarization of cytoplasmic membrane (CM) in Escherichia coli ATCC 25922 assessed as fluorescence changes at 1/2 to 3 times of MIC measured after 1000 to 3000 seconds by fluorescent probe DiSC3-5 assay; assay type: subcellular; details: time 1000-3000 sec
# Escherichia coli [41] = test: Induction of membrane damage in Escherichia coli ATCC 25922 assessed as ruptured membrane by analysing red fluorescence at 8 uM measured after 1 hr incubation by PI - live and dead staining based fluorescence microscopy; assay type: functional, organism-based
# Escherichia coli [42] = test: Antibiofilm activity against Escherichia coli ATCC 25922 biofilm assessed as removal of matured biofilm at 16 uM; assay type: functional, organism-based
# HEK-293T = test: Cytotoxicity against human HEK293T cells assessed as cell death measured after 18 to 24 hrs by MTT assay; assay type: functional; details: time 18-24 hrs
# Enterococcus faecalis = test: Antimicrobial activity against Enterococcus faecalis 29212 assessed as increase in absorbance incubated for 20 to 22 hrs; assay type: functional; details: time 20-22 hrs
# Escherichia coli [43] = test: Induction of membrane damage in Escherichia coli ATCC 25922 assessed as ruptured membrane by analysing green fluorescence at 8 uM measured after 1 hr incubation by SYTO - live and dead staining based fluorescence microscopy; assay type: functional, organism-based
# Escherichia coli [44] = test: Antimicrobial activity against Escherichia coli ATCC 25922 assessed as increase in absorbance incubated for 20 to 22 hrs in presence of NH4+ physiological salt; assay type: functional, organism-based; details: time 20-22 hrs
# Escherichia coli [45] = test: Antimicrobial activity against Escherichia coli ATCC 25922 assessed as increase in absorbance incubated for 20 to 22 hrs in presence of […] physiological salt; assay type: functional, organism-based; details: time 20-22 hrs
# [46] = Cytotoxicity against porcine IPEC-J2 cells assessed as cell death measured after 18 to 24 hrs by MTT assay; assay type: functional; details: Sus scrofa, time 18-24 hrs
smiles,measurement,setting,value
O=C(O)c1cn(C2CC2)c2cc(N3CCNCC3)c(F)cc2c1=O [CIPROFLOXACIN],MIC,Acinetobacter baumannii [1],0.25 µM
same,MIC,Staphylococcus aureus [2],> 64 µM
same,MIC,Pseudomonas aeruginosa [3],0.25 µM
same,MIC,Acinetobacter baumannii [4],> 64 µM
CNC(C)[C@@H]1CC[C@@H](N)[C@@H](O[C@H]2[C@H](O)[C@@H](O[C@H]3OC[C@](C)(O)[C@H](NC)[C@H]3O)[C@H](N)C[C@@H]2N)O1.CN[C@@H]1[C@@H](O)[C@@H](O[C@@H]2[C@@H](O)[C@H](O[C@H]3O[C@H](C(C)N)CC[C@H]3N)[C@@H](N)C[C@H]2N)OC[C@]1(C)O.CN[C@@H]1[C@@H](O)[C@@H](O[C@@H]2[C@@H](O)[C@H](O[C@H]3O[C@H](CN)CC[C@H]3N)[C@@H](N)C[C@H]2N)OC[C@]1(C)O (some centres not stated),MIC,Acinetobacter baumannii [1],0.25 µM
same,MIC,Staphylococcus aureus [2],> 64 µM
same,MIC,Pseudomonas aeruginosa [3],0.25 µM
same,MIC,Acinetobacter baumannii [4],> 64 µM
same,Activity,Mus musculus [5],Active
same,Activity,Mus musculus [6],Active
same,Activity,Mus musculus [7],Active
CCCCCCCCCC(=O)NCCCC[C@H](NC(=O)[C@@H](N)CSSC[C@H](N)C(=O)N[C@@H](CCCCNC(=O)CCCCCCCCC)C(=O)NCC(=O)NCC(=O)NCC(=O)N[C@H](CCCNC(=N)N)C(=O)N[C@@H](CCCNC(=N)N)C(=O)N[C@@H](CCCNC(=N)N)C(=O)N1CCC[C@H]1C(=O)O)C(=O)NCC(=O)NCC(=O)NCC(=O)N[C@H](CCCNC(=N)N)C(=O)N[C@@H](CCCNC(=N)N)C(=O)N[C@@H](CCCNC(=N)N)C(=O)N1CCC[C@H]1C(=O)O,Activity,Lipopolysaccharide (LPS),Dose-dependent-effect
same,Activity,Escherichia coli [8],~40%
same,MIC,Escherichia coli [9],4 µM
same,Activity,Escherichia coli [10],Active
same,MIC,Escherichia coli [11],8 µM
same,Activity,Escherichia coli [12],Active
same,MIC,Pseudomonas aeruginosa [13],8 µM
same,Activity,Escherichia coli [14],Active; Negligible Alteration In Mic Values Found
same,MIC,Staphylococcus aureus [15],8 µM
same,MIC,Acinetobacter baumannii [1],4 µM
same,Activity,Escherichia coli [16],Active
same,MIC,Escherichia coli [17],4 µM
same,Activity,Escherichia coli [18],inactive
same,fold change (FC),Escherichia coli [19],<=2
same,IC10,RAW264.7,256 µM
same,inhibition,Escherichia coli [20],Active
same,MIC,[21],8 µM
same,Activity,Escherichia coli [22],Active
same,Activity,Cell membrane [23],Time-dependent-effect
same,Activity,Cell membrane [24],Active
same,Activity,Escherichia coli [25],Active
same,Activity,Cell membrane [26],Dose-dependent-effect
same,Activity,Escherichia coli [27],Active
same,Activity,Escherichia coli [28],Active
same,MIC,Staphylococcus aureus [29],8 µM
same,MIC,Staphylococcus aureus [2],8 µM
same,Activity,Escherichia coli [30],Active
same,MIC,Staphylococcus aureus [31],8 µM
same,MIC,Salmonella typhimurium [32],4 µM
same,Activity,Escherichia coli [33],Active; Negligible Alteration In Mic Values Found
same,MIC,Pseudomonas aeruginosa [3],4 µM
same,Activity,Escherichia coli [34],Active
same,Activity,Escherichia coli [35],Active
same,MIC,Acinetobacter baumannii [4],16 µM
same,HC10,[36],256 µM
same,Activity,Escherichia coli [37],Active; Negligible Alteration In Mic Values Found
same,Activity,Escherichia coli [38],Active
same,MIC,Salmonella typhimurium [39],8 µM
same,Activity,Cell membrane [40],Dose-dependent-effect
same,Activity,Escherichia coli [41],Active
same,Activity,Escherichia coli [42],Active
same,IC10,HEK-293T,256 µM
same,MIC,Enterococcus faecalis,8 µM
same,Activity,Escherichia coli [43],Active
same,Activity,Escherichia coli [44],Active
same,Activity,Escherichia coli [45],Active
same,IC10,[46],256 µM
CC(C)(O/N=C(\C(=O)N[C@@H]1C(=O)N2C(C(=O)[O-])=C(C[n+]3ccccc3)CS[C@H]12)c1csc(N)n1)C(=O)O [CEFTAZIDIME],MIC,Acinetobacter baumannii [1],0.5 µM
same,MIC,Staphylococcus aureus [2],> 64 µM
same,MIC,Pseudomonas aeruginosa [3],0.5 µM
same,MIC,Acinetobacter baumannii [4],> 64 µM
